Consider six compounds from patent publication US20210284668A1, “GOLD (I)-PHOSPHINE 1,2,3-TRIAZOLE DERIVATIVES WITH ANTIBIOTIC PROPERTIES” (Centre National de la Recherche Scientifique, priority 2018, published 2021).

Experiment [1] relates to panel of Gram-positive and Gram-negative strains. Put plainly: Antibacterial profile on the selected panel of strains. The format is cell-based. As to conditions: summary of Tables 1-12. The procedure:
(§1) The antibacterial profile of each derivative was evaluated by the standard microdilution method for susceptibility testing on 16 different strains, following the guidelines of CLSI. The selected panel included: • S. aureus ATCC25923 (MecA negative, wild-type) • S. aureus ATCC29213 (MecA negative, wild-type) • S. aureus ATCC700699 (MecA positive, glycopeptide resistant) • S. aureus ST20131365 (MecA positive, glycopeptide resistant) • S. epidermidis ATCC14990 (MecA negative, wild-type) • S. epidermidis ATCC35984 (MecA positive) • S. epidermidis ST20140436 (MecA positive, glycopeptide resistant) • S. epidermidis ST20150446 (MecA positive, glycopeptide resistant) • E. faecalis JH2-2 (wild-type) • E. faecalis UCN41 (VanA positive, glycopeptide resistant) • E. faecalis V583 (VanB positive, glycopeptide resistant) • E. faecium ATCC19434T (wild-type) • E. faecium BM4147 (VanA positive, glycopeptide resistant) • E. faecium AUS0004 (VanB positive, glycopeptide resistant) • E. coli ATCC25922 (wild-type) • Clostridium difficile ATCC9689 (wild-type)
(§2) Both series issued from the SAR study were evaluated for their antibacterial activity on a panel of characterized strains obtained from the French National Reference Centers for Staphylococci (Lyon, Pr. Fréderique Laurent) and for Enterococci (Caen, Pr. Vincent Cattoir), respectively. As shown in the following tables, both series contain very active compounds on multi-resistant Gram-positive bacteria (Minimal Inhibitory Concentrations lower than comparator antibiotic ampicillin). Furthermore, a very important antibacterial effect has been shown too on a strain of Clostridium difficile, a Gram-positive, spore-forming, bacillus responsible for post-antibiotic diarrhoae.
(§3) The antibacterial activity of test compounds was evaluated on a selected panel of Gram-positive (4 Staphylococcus aureus, 4 Staphylococcus epidermidis, 3 Enterococcus faecalis, 3 Enterococcus faecium, 1 Clostridium difficile) and Gram-negative strains (1 Escherichia coli, 1 Klebsiella pneumoniae, 1 Pseudomonas aeruginosa, 1 Acinetacter baumannii) with known features of antibiotic resistance (from wild-type susceptibility to multi-drug resistance). The Minimal Inhibitory Concentration (MIC) of test compounds was determined in duplicate by the microdilution method in 96-well microplates with a final volume of 100 μL per well and Mueller-Hinton broth as the growth medium, as recommended by the CLSI (Clinical and Laboratory Standards Institute, document Mo7-A10, USA).

In another experiment the test system is E. faecium AUS0004. Put plainly: MIC by microdilution, E. faecium AUS0004. The format is cell-based, Enterococcus faecium. As to conditions: E. faecium AUS0004 (VanB positive, glycopeptide resistant), in duplicate. The procedure:
as §1, §2, §3
For orientation: Dilution methods test growth across graded concentrations, often in twofold steps.

Another experiment relates to S. aureus ATCC29213. Put plainly: MIC by microdilution, S. aureus ATCC29213. The format is cell-based, Staphylococcus aureus. To be noted: S. aureus ATCC29213 (MecA negative, wild-type), Mueller-Hinton broth, in duplicate. The procedure: as §1, §2, §3
For experiment [2], the system named is Clostridium difficile ATCC700057. Put plainly: MIC by microdilution, Clostridium difficile. The format is cell-based. To be noted: strain ATCC70057 [sic] (Tables 1-2) / ATCC700057 (Tables 3-10), in duplicate.
A further experiment has as its system S. aureus ST20131365. Put plainly: MIC by microdilution, S. aureus ST20131365. The format is cell-based, Staphylococcus aureus. As to conditions: S. aureus ST20131365 (MecA positive, glycopeptide resistant), in duplicate. The procedure: as §1, §2, §3
Another experiment concerns S. epidermidis ATCC14990. Put plainly: MIC by microdilution, S. epidermidis ATCC14990. To be noted: S. epidermidis ATCC14990 (MecA negative, wild-type), in duplicate. The format is cell-based, Staphylococcus epidermidis. On the procedure: as §1, §2, §3
Another experiment has as its system S. aureus ATCC700699. Put plainly: MIC by microdilution, S. aureus ATCC700699. The format is cell-based, Staphylococcus aureus. Also on record: unit not given here. To be noted: S. aureus ATCC700699 (MecA positive, glycopeptide resistant), in duplicate. The procedure: as §1, §2, §3
The next experiment concerns E. faecalis UCN41. Put plainly: MIC by microdilution, E. faecalis UCN41. On the set-up: unit not given here. The format is cell-based, Enterococcus faecalis. As to conditions: E. faecalis UCN41 (VanA positive, glycopeptide resistant), in duplicate. On the procedure: as §1, §2, §3
In a further experiment the test system is E. coli ATCC25922. As to the kind of experiment: MIC by microdilution, E. coli ATCC25922. The format is cell-based, Escherichia coli. As to conditions: E. coli ATCC25922 (wild-type), in duplicate. On the procedure: as §1, §2, §3
For the next experiment, the system named is E. faecium ATCC19434T. As to the kind of experiment: MIC by microdilution, E. faecium ATCC19434T. The format is cell-based, Enterococcus faecium. On the set-up: unit not given here. To be noted: E. faecium ATCC19434T (wild-type), in duplicate. The procedure: as §1, §2, §3
A further experiment deals with E. faecium BM4147. As to the kind of experiment: MIC by microdilution, E. faecium BM4147. The format is cell-based, Enterococcus faecium. On the set-up: unit not given here. To be noted: E. faecium BM4147 (VanA positive, glycopeptide resistant), in duplicate. On the procedure:
as §1, §2, §3

The test system of the next experiment is E. faecalis V583. Put plainly: MIC by microdilution, E. faecalis V583. The format is cell-based, Enterococcus faecalis. To be noted: E. faecalis V583 (VanB positive, glycopeptide resistant), in duplicate. On the procedure: as §1, §2, §3
In the next experiment the test system is S. aureus ATCC25923. As to the kind of experiment: MIC by microdilution, S. aureus ATCC25923. The format is cell-based, Staphylococcus aureus. To be noted: S. aureus ATCC25923 (MecA negative, wild-type), Mueller-Hinton broth, in duplicate. The procedure: as §1, §2, §3
The test system of the next experiment is E. faecalis JH2-2. As to the kind of experiment: MIC by microdilution, E. faecalis JH2-2. The format is cell-based, Enterococcus faecalis. Also on record: unit not given here. To be noted: E. faecalis JH2-2 (wild-type), in duplicate. The procedure: as §1, §2, §3
A further experiment has as its system S. epidermidis ATCC35984. As to the kind of experiment: MIC by microdilution, S. epidermidis ATCC35984. The format is cell-based, Staphylococcus epidermidis. As to conditions: S. epidermidis ATCC35984 (MecA positive), in duplicate. The procedure:
as §1, §2, §3

In experiment [3] the test system is S. epidermidis ST20150446. As to the kind of experiment: MIC by microdilution, S. epidermidis ST20150446. As to conditions: S. epidermidis ST20150446 (MecA positive, glycopeptide resistant), in duplicate. The format is cell-based, Staphylococcus epidermidis. On the procedure: as §1, §2, §3
The test system of experiment [4] is S. epidermidis ST20140436. Put plainly: MIC by microdilution, S. epidermidis ST20140436. As to conditions: S. epidermidis ST20140436 (MecA positive, glycopeptide resistant), in duplicate. The format is cell-based, Staphylococcus epidermidis. The procedure: as §1, §2, §3

Structures are written as SMILES. Several values for one entry are separate records, joined by “and”; a condition that tells them apart may be missing. Identical values can stand only once.

As to `CC[P+](CC)(CC)[Au-][c]1nn[nH]c1-c1ccc(C(=O)NC(C(=O)NC2C(=O)N3C2SC(C)(C)C3C(=O)O)c2ccccc2)cc1` (stereo not shown) [TMB22], the “antimicrobial / antibacterial activity (in words)” value in experiment [1] is reported as “have antimicrobial activity”. The “Minimal Inhibitory Concentration (MIC)” value in the experiment with E. faecium AUS0004 is 1; with S. aureus ATCC29213, 0.125; in experiment [2], at most 0.06; with S. aureus ST20131365, 0.25; in the experiment with S. epidermidis ATCC14990 it was at most 0.06; in the experiment with S. aureus ATCC700699, 0.125 and 0.25. Also, the “Minimal Inhibitory Concentration (MIC)” value with E. faecalis UCN41 was 1; in the experiment on E. coli ATCC25922, above 8; with E. faecium ATCC19434T, 1; with E. faecium BM4147, 1; in the experiment on E. faecalis V583, 0.5; with S. aureus ATCC25923, 0.125. Besides, the “Minimal Inhibitory Concentration (MIC)” value in the experiment on E. faecalis JH2-2 is listed as 0.5.
On to `O=C(N[C@@H](C(=O)O)c1ccccc1)OCc1cnn[nH]1` [TMB41], for which the “antimicrobial / antibacterial activity (in words)” value in [1] was “do not show an antibacterial activity”. Moreover, the “Minimal Inhibitory Concentration (MIC)” value (in the experiment with S. epidermidis ATCC35984; in the experiment on E. faecium AUS0004; in the experiment on S. aureus ATCC29213; in [2]; with S. aureus ST20131365; in the experiment with S. epidermidis ATCC14990) was above 8 in each case. The “Minimal Inhibitory Concentration (MIC)” value (in the experiment on S. aureus ATCC700699; in the experiment on E. faecalis UCN41; in experiment [3]; in the experiment on E. faecium ATCC19434T; in the experiment with E. faecium BM4147; with E. faecalis V583) was above 8 in each case. Besides, the “Minimal Inhibitory Concentration (MIC)” value (in [4]; in the experiment with S. aureus ATCC25923; in the experiment on E. faecalis JH2-2) was above 8 throughout.
`CC[P+](CC)(CC)[Au-][c]1nn[nH]c1CNC(=O)CCCC[C@@H]1SC[C@@H]2NC(=O)N[C@@H]21` [TMB42]: in [1], the “antimicrobial / antibacterial activity (in words)” value is “have antimicrobial activity”. Besides, the “Minimal Inhibitory Concentration (MIC)” value in the experiment on S. epidermidis ATCC35984 is at most 0.06; in the experiment on E. faecium AUS0004, 0.5; in the experiment with S. aureus ATCC29213, 0.25; in [2], 0.25; with S. aureus ST20131365, 0.25; in the experiment with S. epidermidis ATCC14990, at most 0.06. For the same compound, the “Minimal Inhibitory Concentration (MIC)” value in the experiment on S. aureus ATCC700699 is recorded as 0.25; with E. faecalis UCN41, 1; in [3], at most 0.06; in the experiment with E. faecium ATCC19434T it was 0.25; with E. faecium BM4147, 0.5; in the experiment on E. faecalis V583 it was 1. In addition, the “Minimal Inhibitory Concentration (MIC)” value in experiment [4] is reported as at most 0.06; with S. aureus ATCC25923 it was 0.125; in the experiment on E. faecalis JH2-2, 0.25.
`CC[P+](CC)(CC)[Au-][c]1nn[nH]c1-c1c(C)noc1C` [TMB43]: in [1], the “antimicrobial / antibacterial activity (in words)” value is “have antimicrobial activity”. Moreover, the “Minimal Inhibitory Concentration (MIC)” value in the experiment with S. epidermidis ATCC35984 was at most 0.06; in the experiment on E. faecium AUS0004, 0.25; in the experiment with S. aureus ATCC29213 it was 0.125; in experiment [2] it was 0.25; in the experiment on S. aureus ST20131365 it was 0.125; in the experiment with S. epidermidis ATCC14990 it was at most 0.06. Besides, the “Minimal Inhibitory Concentration (MIC)” value with S. aureus ATCC700699 was 0.125; in the experiment on E. faecalis UCN41, 0.25; in [3], at most 0.06; with E. faecium ATCC19434T, 0.125; with E. faecium BM4147 it was 0.125; in the experiment on E. faecalis V583, 0.25. Also, the “Minimal Inhibitory Concentration (MIC)” value in experiment [4] is 0.125; in the experiment with S. aureus ATCC25923, at most 0.06; with E. faecalis JH2-2 it was 0.25.
In the case of `CC[P+](CC)(CC)[Au-][c]1nn[nH]c1COC(=O)NC(C(=O)O)c1ccccc1` (stereo not shown) [TMB45], the “antimicrobial / antibacterial activity (in words)” value in [1] was “have antimicrobial activity”. For the same compound, the “Minimal Inhibitory Concentration (MIC)” value was at most 0.06 in the experiment with S. epidermidis ATCC35984; 0.5 in the experiment with E. faecium AUS0004; 0.25 in the experiment on S. aureus ATCC29213; 0.125 in experiment [2]; 0.25 in the experiment with S. aureus ST20131365; at most 0.06 in the experiment on S. epidermidis ATCC14990. In addition, the “Minimal Inhibitory Concentration (MIC)” value in the experiment with S. aureus ATCC700699 is 0.25; in the experiment with E. faecalis UCN41, 0.25; in [3], at most 0.06; in the experiment with E. faecium ATCC19434T, 0.25; in the experiment with E. faecium BM4147 it was 0.25; in the experiment with E. faecalis V583, 0.5. Moreover, the “Minimal Inhibitory Concentration (MIC)” value in experiment [4] is reported as at most 0.06; with S. aureus ATCC25923, 0.125; with E. faecalis JH2-2 it was 0.5.
On to `O=C(CCc1cnn[nH]1)N[C@@H](C(=O)O)c1ccccc1` [TMB46], for which, in experiment [1], the “antimicrobial / antibacterial activity (in words)” value is “do not show an antibacterial activity”. Moreover, the “Minimal Inhibitory Concentration (MIC)” value (with S. epidermidis ATCC35984; in the experiment on E. faecium AUS0004; in the experiment with S. aureus ATCC29213; in experiment [2]; with S. aureus ST20131365; with S. epidermidis ATCC14990) was above 8 in each case. For the same compound, the “Minimal Inhibitory Concentration (MIC)” value (with S. aureus ATCC700699; with E. faecalis UCN41; in experiment [3]; in the experiment on E. faecium ATCC19434T; in the experiment with E. faecium BM4147; in the experiment with E. faecalis V583) was above 8 each time. Further, the “Minimal Inhibitory Concentration (MIC)” value (in experiment [4]; in the experiment on S. aureus ATCC25923; with E. faecalis JH2-2) was above 8 throughout.
